Square brackets hold non-standard residues; d marks the D form. Peptide text beside a SMILES is read from it. * marks the point of attachment. Sta = CC(C)C[C@H](N)[C@@H](O)CC(=O)O; Isovaleryl = CC(C)CC(=O)*
Tests used:
[1] = system: Neuro2a cells expressing apoE3; experiment: formation of apoE and p-tau immunoreactive intracellular inclusions after Aβ or ER stress inducers; format: cell-based, mouse; conditions: untreated 0%; p<0.001
Description: (§1) Cell cultures—Murine neuroblastoma (Neuro-2a) cells were obtained from American Type Culture Collection (Rockville, Md.). Neuro-2a cells were maintained at 37° C. in a humidified 5% CO2 incubator in MEM-containing 10% FBS, supplemented with non-essential amino acids, penicillin, and streptomycin.
(§2) Transient transfection of cells—Neuro-2a, NT2-N, or cultured mouse primary neurons were transiently transfected with various apoE cDNA constructs, as listed in Table I, by using lipofectamine method. Briefly, 2 μg of apoE DNA were pre-incubated with 7 μl of lipofectamine in 200 μl of serum-free MEM containing N2-supplements at room temperature for 30 minutes. After addition of 800 μl of serum-free MEM containing N2-supplements, the mixture was added into the cells that had been washed three times with serum-free MEM. Ten to forty-eight hours later, the transfected cells were used for different experiments.
(§3) Immunocytochemistry—Neuro-2a cells were grown in 2-well chamber slides for 24 hours and were then transiently transfected with different apoE3 or apoE4 DNA constructs, as described above. After washing twice in PBS, the transfected cells were fixed with 3% paraformaldehyde in PBS for 30 minutes at room temperature, washed twice in PBS, and then permeabilized with Triton-X100 for 5 minutes which was followed by three washes in PBS.
(§4) To block nonspecific reactions, all slides were incubated for 1 hour at room temperature with PBS containing 2% BSA and 10% normal serum (Vector) derived from the same species as the source of secondary antibody (sheep or rabbit), followed by a 1-hour incubation with the primary antibody (monospecific rabbit anti-human apoE, 1:500; monoclonal anti-p-tau, 1:100-1:1000, anti-p-NF—H, 1:100-1:500) in PBS containing 2% BSA.
(§5) Slides were then washed three times in PBS containing 2% BSA and incubated for 1 hour at room temperature with the secondary antibody (FITC-coupled anti-rabbit IgG to detect antigen-bond anti-human apoE, Rodamine- or Cy5-coupled anti-mouse IgG to detect antigen-bond anti-p-tau or anti-p-NF—H). After three washes in PBS containing 2% BSA, immunofluorescently labeled slides were mounted in VectaShield (Vector) and viewed with a MRC-1024 laser scanning confocal system (Bio-Rad) mounted on an Optiphot-2 microscope (Nikon, Tokyo, Japan).
(§6) Since Aβ deposition is a major pathological component within the brains of Alzheimer's disease patients, we determined the effect of Aβ treatment on the formation of apoE and p-tau immunoreactive intracellular inclusions in Neuro2a cells expressing apoE.
(§7) Since Aβ treatment of cells can cause ER stress (TN98), other ER stress inducers, including Brefeldin A (BfA) and tunicamycin (TN98), were used to determine whether ER stress can increase the formation of intracellular inclusions in apoE transfected Neuro2a cells. Incubation with either BfA or tunicamycin increased the inclusion-positive cells from 2.7±1.2% to 7.2±2.1% (p<0.001) in apoE4 expressing cells and from 0% to 3.2±1.1% (p<0.001) in apoE3 expressing cells.

[2] = system: Neuro2a cells expressing apoE4; experiment: as above; format: cell-based, mouse; conditions: untreated 2.7±1.2%; p<0.001
Description: as §1, §2, §3, §4, §5, §6, §7

[3] = system: apoE cleavage enzyme; experiment: cleavage of apoE4 in the presence of known protease inhibitors, anti-apoE western blot; format: biochemical, mouse
Description: To test this hypothesis, purified human apoE3 or apoE4 were incubated with brain lysates of apoE knockout mice at 37° C. for 3 hours and the proteolysis of apoE was analyzed by anti-apoE western blot.
To determine the biochemical properties of the putative apoE cleavage enzyme, we tested the effects of different known inhibitors for four major categories of proteases, i.e., serine proteases, cysteine proteases, aspartate proteases, and metalloproteases.

[4] = system: apoE cleavage enzyme; experiment: chromogenic assay with Ala-Ala-Pro-Phe-p-nitroanilide as substrate; format: biochemical, mouse; conditions: 1 mM Ala-Ala-Pro-Phe-p-nitroanilide substrate
Description: To monitor the cleavage activity, a chromogenic group (p-nitroanilide) was added to the carboxyl-side of the last amino acid at the C-terminus. If the enzyme cuts the bond between the last amino acid and p-nitroanilide, the released p-nitroanilide will yield a yellow color, which can be monitored by a spectrophotometer at about 390-410 nm.
Importantly, a proline at the P2 position and two hydrophobic amino acids (such as alanine, Ala) at the P3 and P4 positions are critical for determining the efficiency of the cleavage. Taken together, the putative apoE cleavage enzyme is a chymotrypsin-like serine protease, which recognizes the motif of Ala-Ala-Pro-Phe (SEQ ID NO:1), Ala-Ala-Pro-Met (SEQ ID NO:2), Ala-Ala-Pro-Leu (SEQ ID NO:3), or a similar sequence in the substrate peptides or proteins. By using Ala-Ala-Pro-Phe-p-nitroanilide as a substrate, the chromogenic assay can be used as a high-throughput method to screen drugs, agents, or chemical compounds that inhibit apoE cleavage activity. Para-nitroanilide is detected spectrophotometrically at about 390-410 nm.
By using the chromogenic assay, in which 1 mM Ala-Ala-Pro-Phe-p-nitroanilide was used as the substrate, we screened many peptides towards the inhibition of the apoE cleavage enzyme activity.

[5] = system: apoE cleavage enzyme; experiment: inhibition of apoE4 cleavage by partially purified apoE cleavage enzyme, anti-apoE western blot; format: biochemical, mouse; conditions: peptide 1 mM, 4 μg apoE4, 3 hours at 37° C.
Text: The peptides Ala-Ala-Pro-Phe (SEQ ID NO:1) and Ala-Ala-Pro-Leu (SEQ ID NO:3) were further tested for the inhibition of apoE cleavage. […] Thus, both Ala-Ala-Pro-Phe (SEQ ID NO:1) and Ala-Ala-Pro-Leu (SEQ ID NO:3) can be used as peptide inhibitors for the apoE cleavage enzyme.

[6] = system: Neuro-2a cells expressing apoE3 or apoE4; experiment: generation of carboxyl-terminal truncated apoE in cells incubated with Aβ1-42, immunoprecipitation and anti-apoE western blotting; format: cell-based, mouse; conditions: more so with apoE4
Description: Immunoprecipitation and western blotting—Neuro-2a cells were grown to 80% confluence in 6-well plates or 15-cm dishes and were then transiently transfected with different apoE DNA constructs, as described above. Twenty-four to forty-eight hours later, the cells were harvested and lysed in ice-cold lysis buffer for 30 minutes. After spinning to remove nuclei (13,000 rpm for 15 minutes), apoE in supernatant was immunoprecipitated with monospecific rabbit anti-human apoE antibody and protein-A agarose beads. The immunoprecipitates were washed twice with lysis buffer and three times with PBS. The presence of apoE, p-tau, or p-NF—H in the immunoprecipitates was analyzed by western blotting using the corresponding antibodies. Alternatively, the supernatants of cell lysates were immunoprecipited with monoclonal anti-p-tau or anti-p-NF—H antibodies and, then, the presence of apoE was analyzed by anti-apoE western blotting.
Since Aβ1-42 increased formation of intracellular inclusions in Neuro2a cells expressing apoE4, we next determined whether treatment of the transfected cells with Aβ will increase generation of the carboxyl-terminal truncated form of apoE. Neuro-2a cells expressing apoE3 or apoE4 were incubated with Aβ1-42, then, intracellular apoE was immunoprecipitated and detected by anti-apoE western blotting. […]

[7] = system: Neuro-2a cells; experiment: formation of intracellular inclusions / NFT-like structures in cells transfected with truncated apoE constructs; format: cell-based, mouse; conditions: constructs with deletion of 28 carboxyl-terminal amino acids
Description: as §1, §2
Immunocytochemistry—Neuro-2a cells were grown in 2-well chamber slides for 24 hours and were then transiently transfected with different apoE3 or apoE4 DNA constructs, as described above. […]
For the cells transiently transfected with GFP-apoE DNA constructs, after fixed in 3% paraformaldehyde and washed twice in PBS, the green fluorescence was viewed directly with a MRC-1024 laser scanning confocal system (Bio-Rad) as described above. […]

[8] = system: Neuro-2a cells; experiment: incubation of cells with exogenous recombinant apoE4(Δ272-299) complexed with β-VLDL; format: cell-based, mouse; conditions: 30 hours incubation
Description: In human brains, apoE is synthesized and secreted primarily by astrocytes, although human neurons are capable of producing apoE. The secreted apoE can be internalized by neurons. To determine whether internalized apoE4(Δ272-299) can induce formation of NFT-like structures in neurons. Neuro-2a cells were incubated with recombinant apoE4(Δ272-299), which had been complexed with the lipid transport vehicle β-VLDL. After 30 hours incubation, neurite outgrowth and the formation of NFT-like structures in the cells were determined. […] These structures were identical to the tangle-like structures formed in Neuro-2a cells expressing GFP-apoE4(Δ272-299) in the cytosol. Therefore internalized apoE4(Δ272-299) can escape the endosomal-lysosomal pathway and interact with cytosolic p-tau and p-NF—H.

[9] = 6 mM peptide, 20 hour incubation

C[C@H]1CCC/C=C/[C@@H]2C[C@H](O)C[C@H]2[C@H](O)/C=C/C(=O)O1 [BfA, Brefeldin A]
inclusion-positive apoE3 expressing cells after treatment [1]: 3.2±1.1%
inclusion-positive apoE4 expressing cells after treatment [2]: 7.2±2.1%

CC(C)C[C@H](NC(=O)[C@H]1O[C@@H]1C(=O)O)C(=O)NCCCCN=C(N)N [E-64]
inhibition of the cleavage of apoE4 [3]: did not inhibit

O=C(O)CN(CCOCCOCCN(CC(=O)O)CC(=O)O)CC(=O)O [EGTA]
inhibition of the cleavage of apoE4 [3]: did not inhibit

O=S(=O)(F)Cc1ccccc1 [PMSF]
inhibition of the cleavage of apoE4 [3]: totally abolished

CC(C)CC(=O)N[C@H](C(=O)N[C@H](C(=O)N[C@@H](CC(C)C)[C@@H](O)CC(=O)N[C@@H](C)C(=O)N[C@@H](CC(C)C)[C@@H](O)CC(=O)O)C(C)C)C(C)C [pepstain] (Isovaleryl-VV[Sta]A[Sta]-OH)
inhibition of the cleavage of apoE4 [3]: did not inhibit

Ala-Ala-Pro-Leu (AAPL; OTHER INFORMATION: synthetic peptide)
inhibition of apoE cleavage enzyme activity [4, 9]: 56%
inhibition of apoE cleavage [5]: significant inhibition

Ala-Ala-Pro-Phe (AAPF; OTHER INFORMATION: synthetic peptide)
inhibition of apoE cleavage enzyme activity [4, 9]: 67%
inhibition of apoE cleavage [5]: significant inhibition

Aβ1-42: amyloid beta (Aβ) peptide 1-42
inclusion-positive apoE3 expressing cells after treatment [1]: 2.8±0.6%
inclusion-positive apoE4 expressing cells after treatment [2]: 6.7±1.5%
amounts of the carboxyl-terminal truncated forms of both apoE3 and apoE4 [6]: significantly increased

apoE4 (Δ272-299): apoE4 with deletion of 28 carboxyl-terminal amino acids
transfected cells displaying the intracellular filamentous inclusions [7]: 78±8%
neurite outgrowth [8]: did not show neurite outgrowth
formation of NFT-like structures ([8]; anti-apoE immunofluorescent staining): NFT-like structures were formed

apoE4: human apolipoprotein E isoform apoE4, full-length
inhibition of apoE cleavage enzyme activity ([4]; 7 μM apoE4): 89%

tunicamycin
inclusion-positive apoE3 expressing cells after treatment [1]: 3.2±1.1%
inclusion-positive apoE4 expressing cells after treatment [2]: 7.2±2.1%

From US6787519B2, “Methods of treating disorders related to apoE” (The Regents of the University of California, priority 2000, dated 2004)
